Laboratory results: patent US20230203055A1, “FUSED RING COMPOUND AND APPLICATION THEREOF IN MEDICINE” (Betta Pharmaceuticals Co., LTD, priority 2020, published 2023)
Read-outs that look alike come from different tables or passages of the source.

Legend:
MIA PaCa-2 cells = test: Detection of cell proliferation inhibition, MIA PaCa-2 (Cell-titer Glo, 96 h); type: cell-based
Method: MIA PaCa-2 cells were plated in a 96-well ultra-low adsorption plate at 600 cells and 160 µL/well. After overnight incubation, compound solutions with gradient concentrations were prepared, and 40 µL of DMSO solutions of the compounds to be tested were added to each well of cells respectively. Compound final concentrations were 10000, 2000, 400, 80, 16, 3.2, 0.64, 0.12, 0.025, 0 nM (all final concentrations of DMSO were 0.25%). Incubate at 37° C., 5% CO2 for 96 h. Add 50 µL of Cell-titer Glo working solution to each well, shake and mix well, incubate at room temperature for 10 min, read the Luminescence luminescence value with a multi-function microplate reader, and convert the luminescence value reading into inhibition percentage: Percent Inhibition = (Max-Reading)/(Max-Min)* 100. • “Max” is the DMSO control; • “Min” is the cell-free control.
Curve fitting was performed with Graphpad Prism software and IC50 values were obtained. See Table 1for IC50 data for the inhibition of MIA PaCa-2 cells by the compounds of the examples.

H358 cells = test: Detection of cell proliferation inhibition, H358 (Cell-titer Glo, 96 h); type: cell-based
Method: H358 cells were plated in 96-well ultra-low adsorption plates at 2000 cells and 190 µL/well. After overnight incubation, compound solutions of gradient concentrations were prepared, and 10 µL of the DMSO solution of each concentration of the compound to be tested was added to the cells in each well. Compound final concentrations were 10000, 3333.3, 1111.1, 370.4, 123.5, 41.2, 13.7, 4.6, 1.5, 0 nM (all final concentrations of DMSO were 0.25%). Incubate at 37° C., 5% CO2 for 96 h. Add 50 µL of Cell-titer Glo working solution to each well, incubate at room temperature for 10 min after shaking and mixing, read the Luminescence luminescence value with a multi-function microplate reader, and convert the luminescence value reading into the inhibition percentage:
Percent Inhibition = (Max-Reading)/(Max-Min)* 100. • “Max” is the DMSO control, • “Min” is the cell-free control.
Curve fitting was performed with Graphpad Prism software and IC50 values were obtained. See Table 1 for IC50 data on H358 cell inhibition by example compounds.

[1] = Homo sapiens, read-out: IC50 (nM) MIA PaCa-2
[2] = Homo sapiens, NCI-H358, read-out: IC50 (nM) H358
[3] = Homo sapiens, read-out: IC50 MIA PaCa-2

IC50 (MIA PaCa-2 cells; read-out: IC50 (nM) MIA PaCa-2) [nM]	IC50 (H358 cells; read-out: IC50 (nM) H358) [nM]	IC50 (MIA PaCa-2 cells; [1]) [nM]	IC50 (H358 cells; [2]) [nM]	Molecule	other results
70	137			10-((S)-4-(Acryloyl-2-Methylpiperazin-1-yl)-8-Fluoro-13-(2-Isopropyl-4-Methyl) Pyridin-3-yl)-2,3-Dihydrobenzo [4,5] Oxodipine [3,2-h] Quinolin-12(13H)One [Example 7]	
122	295			C=CC(=O)N1CCN(c2nc(=O)n(-c3c(C)ccnc3C(C)C)c3c(F)c4c(cc23)OCc2ccccc2-4)[C@@H](C)C1 [Example 2]	
< 50	78			C=CC(=O)N1CCN(c2nc(=O)n(-c3c(C)ccnc3C(C)C)c3c4c(c(F)cc23)-c2c(F)cccc2CO4)[C@@H](C)C1 [Example 3]	
63	191			C=CC(=O)N1CCN(c2nc(=O)n(-c3c(C)ccnc3C(C)C)c3c(F)c4c(cc23)OCc2cccc(F)c2-4)[C@@H](C)C1 [Example 4, (S)-8-(Acryloyl-2-Methylpiperazin-1-yl)-1,12-Difluoro-11-(2-Isopropyl-4-Methylpyridin-3-yl)-5H-Isochromene[3,4-g] Quinazolin-10(11H)-One]	
< 50	115			C=CC(=O)N1CCN(c2nc(=O)n(-c3c(C)ccnc3C(C)C)c3c4c(c(F)cc23)-c2c(Cl)cccc2CO4)[C@@H](C)C1 [Example 5, (S)-1-(Acryloyl-2-Methylpiperazin-1-yl)-10-Chloro-11-Fluoro-4-(2-Isopropyl-4-Methylpyridin-3-yl)-4H-Isochromene[4,3-h] Quinazolin-3(6H)-One]	
		85	155	C=CC(=O)N1CCN(c2nc(=O)n(-c3c(C)ccnc3C(C)C)c3c(F)c4c(cc23)OCCc2ccccc2-4)[C@@H](C)C1 [Example 8]	
				C=CC(=O)N1CCN(c2nc(=O)n(-c3c(C)ccnc3C(C)C)c3c4c(c(F)cc23)-c2c(O)cccc2CO4)[C@@H](C)C1 [Example 9, (S)(Acryloyl-2-methylpiperazinyl)-11-fluoro-10-hydroxy-4-(2-isopropyl-4-methylpyridin-3-yl) -4 H-isochromene[4,3-h] quinazolin-3(6 H)-one]	IC50 (MIA PaCa-2 cells; [3]): > 10000 nM; IC50 (H358 cells; Homo sapiens, NCI-H358, read-out: IC50 H358): > 10000 nM
		3110	3870	C=CC(=O)N1CCN(c2nc(=O)n(-c3c(C)ccnc3C(C)C)c3c(F)c4c(cc23)OCc2cccc(O)c2-4)[C@@H](C)C1 [Example 10, (S)-8-(Acryloyl-2-Methylpiperazin-1-yl)-12-Fluoro-1-Hydroxy-1l-(2-Isopropyl-4-Methylpyridin-3-yl)-5H-Isochromene[3,4-g]Quinazolin-10(11H)-One]	
		964	2040	C=CC(=O)N1CCN(c2nc(=O)n(-c3c(C)ccnc3C(C)C)c3c4c(c(F)cc23)-c2c(cccc2OC)CO4)[C@@H](C)C1 [Example 11, (S)-1-(Acryloyl-2-Methylpiperazin-1-yl)-l1-Fluoro-10-Methoxy-4-(2-Isopropyl-4-Methylpyridin-3-yl)-4H-Isochromene[4,3-h] Quinazolin-3(6H)-one]	
			3180	C=CC(=O)N1CCN(c2nc(=O)n(-c3c(C)ccnc3C(C)C)c3c(F)c4c(cc23)OCc2cccc(OC)c2-4)[C@@H](C)C1 [Example 12, (S)-8-(Acryloyl-2-Methylpiperazin-1-yl)-12-Fluoro-1-Methoxy-11-(2-Isopropyl-4-Methylpyridin-3-yl)-5H-Isochromene[3,4-g] Quinazolin-10(11H)-One]	IC50 (MIA PaCa-2 cells; [3]): > 2000 nM
< 50	< 50			C=CC(=O)N1CCN(c2nc(=O)n(-c3c(C)ccnc3C(C)C)c3c4c(c(Cl)cc23)-c2c(F)cccc2CO4)[C@@H](C)C1 [Example 13, (S)-1-(4-Acryloyl-2-Methylpiperazin-1-yl)-11-Chloro-10-Fluoro-4-(2-Isopropyl-4-Methylpyridin-3-yl)-4H-Isochromene[4,3-h] Quinazolin-3(6H)-One]	
< 50	< 50			C=CC(=O)N1CCN(c2nc(=O)n(-c3c(C)ccnc3C(C)C)c3c4c(c(C=C)cc23)-c2c(F)cccc2CO4)[C@@H](C)C1 [Example 14, (S)-1-(4-Acryloyl-2-Methylpiperazin-1-yl)-10-Fluoro-4-(2-Isopropyl-4-Methylpyridine-3-yl)-11-Vinyl-4H-Isochromene[4,3-h] Quinazolin-3(6H)-One]	
< 50	< 50			C=CC(=O)N1CCN(c2nc(=O)n(-c3c(C)ccnc3C(C)C)c3c4c(c(C)cc23)-c2c(F)cccc2CO4)[C@@H](C)C1 [Example 15, (S)-1-(4-Acryloyl-2-Methylpiperazin-1-yl)-10-Fluoro-4-(2-Isopropyl-4-Methylpyridine-3-yl)-11-Methyl-4H-Isochromene[4,3-h] Quinazolin-3(6H)-One]	
< 50	80.6			C=CC(=O)N1CCN(c2nc(=O)n(-c3c(C)ccnc3C(C)C)c3c4c(c(C(F)(F)F)cc23)-c2c(F)cccc2CO4)[C@@H](C)C1 [Example 16, (S)-1-(4-Acryloyl-2-Methylpiperazin-1-yl)-10-Fluoro-4-(2-Isopropyl-4-Methylpyridine-3-yl)-11-(Trifluoromethyl)-4H-Isochromene[4,3-h] Quinazolin-3(6H)-One]	
		317	274	C=CC(=O)N1CCN(c2nc(=O)n(-c3c(C)ccnc3C(C)C)c3c(F)c4c(cc23)OCc2ccc(F)c(F)c2-4)[C@@H](C)C1 [Example 17, (S)-8-(4-Acryloyl-2-Methylpiperazin-1-yl)-1,2,12-Trifluoro-11-(2-Isopropyl-4 -Methylpyridin-3-yl)-5H Isochromene[3,4-g] Quinazolin-10(11H)-One]	
		< 50	< 50	C=CC(=O)N1CCN(c2nc(=O)n(-c3c(C)ccnc3C(C)C)c3c4c(c(Cl)cc23)-c2c(ccc(F)c2F)CO4)[C@@H](C)C1 [Example 18, (S)-1-(4-Acryloyl-2-Methylpiperazin-1-yl)-11-Chloro-9,10-Difluoro-4-(2-Isopropyl-4-Methylpyridin-3-yl)-4H-Isochromene[4,3-h] Quinazolin-3(6H)-One]	
		< 50	< 50	C=CC(=O)N1CCN(c2nc(=O)n(-c3c(C)ccnc3C(C)C)c3c4c(c(Cl)cc23)-c2c(F)cccc2CCO4)[C@@H](C)C1 [Example 19, 10-((S)-4-Acryloyl-2-Methylpiperazin-1-yl)-8-Chloro-7-Fluoro-13-(2-Isopropyl-4-Methylpyridin-3-yl)-2,3-Dihydrobenzo[4,5]oxa[3,2-h]Quinazo1in-12(13H)-One]	
		64.2	62.6	C=CC(=O)N1CCN(c2nc(=O)n(-c3c(C)ccnc3C(C)C)c3c4c(c(Cl)cc23)-c2cccnc2CO4)[C@@H](C)C1 [Example 20, (S)-7-(4-Acryloyl-2-Methylpiperazin-1-yl)-5-Chloro-10-(2-Isopropyl-4-Methylpyridine-3-yl)-10H Pyridin[3’,2’:4,5] Pyrano[3,2-h]Quinazolin-9(12H)-One]	

Molecule	IC50 (MIA PaCa-2 cells; read-out: IC50 (nM) MIA PaCa-2) [nM]	IC50 (H358 cells; read-out: IC50 (nM) H358) [nM]	IC50 (MIA PaCa-2 cells; [1]) [nM]	IC50 (H358 cells; [2]) [nM]	other results
C=CC(=O)N1CCN(c2nc(=O)n(-c3c(C)ccnc3C(C)C)c3c4c(c(F)cc23)-c2ccccc2CO4)[C@@H](C)C1 [Example 1]	90.2	491			
C=CC(=O)N1CCN(c2nc(=O)n(-c3c(C)ccnc3C(C)C)c3c(F)c4c(cc23)OCc2cccc(Cl)c2-4)[C@@H](C)C1 [Example 6, (S)-8-(Acryloyl-2-Methylpiperazin-1-yl)-1-Chloro-12-Fluoro-11-(2-Isopropyl-4-Methylpyridin-3-yl)-5 H-Isochromene[3,4-g] Quinazolin-10(11 H)-one]	272	496			
